Measured values published in the Kinase Knowledgebase extract (Sharma et al. 2016).

Experiments:
[1] = molecular target: MAPK14 (human) (UniProt Q16539); assay: Inhibition of MAPK14 Kinase Activity by Fluorescence Anisotropy Kinase Binding Assay
[2] = molecular target: MAPK14 (human) (UniProt Q16539); assay: Inhibition of MAPK14 Kinase Activity

Chain of MAPK14 (human) (Q16539 whole entry, looked up): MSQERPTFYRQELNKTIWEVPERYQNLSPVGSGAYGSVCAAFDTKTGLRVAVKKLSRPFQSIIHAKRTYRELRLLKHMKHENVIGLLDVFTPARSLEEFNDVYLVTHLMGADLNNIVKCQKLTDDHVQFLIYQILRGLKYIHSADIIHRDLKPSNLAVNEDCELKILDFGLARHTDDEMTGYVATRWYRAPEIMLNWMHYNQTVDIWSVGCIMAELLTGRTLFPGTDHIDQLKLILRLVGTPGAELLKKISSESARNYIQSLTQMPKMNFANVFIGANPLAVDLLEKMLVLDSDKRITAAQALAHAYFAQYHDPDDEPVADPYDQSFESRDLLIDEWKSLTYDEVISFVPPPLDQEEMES

| Structure (SMILES) | IC50 [1] | IC50 [2] |
| --- | --- | --- |
| O=c1ccc2c(-c3ccc(F)cc3F)nc(NC(CO)CO)nc2n1-c1ccc(F)cc1F | < 1000 nM | < 10000 nM |
| O=c1ccc2c(-c3ccc(F)cc3F)nc(NC(CO)CO)nc2n1-c1c(F)cc(F)cc1F | < 1000 nM | < 10000 nM |
| O=c1ccc2c(-c3ccc(F)cc3)nc(NC(CO)CO)nc2n1-c1c(F)cc(F)cc1F | < 1000 nM |  |
| O=c1ccc2c(-c3ccc(F)cc3F)nc(NC(CO)CO)nc2n1-c1cccc(F)c1F | < 1000 nM |  |

Further lines, results first:

| IC50 [1] | IC50 [2] | Structure (SMILES) |
| --- | --- | --- |
| < 1000 nM |  | C[C@@H](CO)Nc1nc(-c2ccc(F)cc2F)c2ccc(=O)n(-c3ccc(F)cc3)c2n1 |
| < 1000 nM | < 10000 nM | O=c1ccc2c(-c3ccccc3F)nc(NC(CO)CO)nc2n1-c1c(F)cc(F)cc1F |
| < 1000 nM |  | O=c1ccc2c(-c3ccc(F)cc3Cl)nc(NC(CO)CO)nc2n1-c1ccc(F)cc1F |
